Assay results taken from patent publication US20050203188A1, “Fungicidal mixtures based on benzamideoxime derivatives, benzophenones and on an azole” (priority 2002, published 2005).

Columns and labels:
[1] = system: Erysiphe [syn. Blumeria] graminis forma specialis tritici; test: Activity against mildew of wheat (protective spray, potted wheat seedlings cv. Kanzler); assay type: in vivo; conditions: single active, 7 days after inoculation
Method: (§1) The active compounds are prepared separately or together as a 10% strength emulsion in a mixture of 63% by weight of cyclohexanone and 27% by weight of emulsifier and diluted with water to the desired concentration.
(§2) Evaluation is carried out by determining the infected leaf areas in percent. These percentages are converted into efficacies. The efficacy (E) is calculated as follows using Abbot's formula: E=(1−α)*100/β • α corresponds to the fungal infection of the treated plants in % and • β corresponds to the fungal infection of the untreated (control) plants in %
(§3) An efficacy of 0 means that the infection level of the treated plants corresponds to that of the untreated control plants; an efficacy of 100 means that the treated plants were not infected.
(§4) The expected efficacies of the active compound mixtures were determined using Colby's formula [S. R. Colby, Weeds 15, 20-22 (1967)] and compared with the observed efficacies. Colby's formula: E=x+y−x−y/100 • E expected efficacy, expressed in % of the untreated control, when using the mixture of the active compounds A and B at the concentrations a and b • x efficacy, expressed in % of the untreated control, when using active compound A at a concentration of a • y efficacy, expressed in % of.the untreated control, when using active compound B at a concentration of b
Leaves of potted wheat seedlings of the cultivar “Kanzler” were sprayed to runoff point with an aqueous suspension having the concentration of active compound stated below. The suspension or emulsion had been prepared from a stock solution comprising 10% of active compound in a mixture consisting of 85% of cyclohexanone and 5% of emulsifier. 24 hours after the spray coating had dried on, the seedlings were dusted with spores of mildew of wheat (Erysiphe [syn. Blumeria] graminis forma specialis tritici). The test plants were then placed in a greenhouse at temperatures between 20 and 24° C. and 60 to 90% relative atmospheric humidity. After 7 days, the extent of the mildew development was determined visually in % infection of the total leaf area.
The visually determined percentages of infected leaf area were converted into efficacies as % of the untreated control. An efficacy of 0 means the infection level of the treated plants corresponds to that of the untreated control; an efficacy of 100 means 0% infection. The expected efficacies of the combinations of active compounds were determined using Colby's formula (Colby, S. R. “Calculating synergistic and antagonistic responses of herbicide Combinations”, Weeds, 15, pp., 20-22, 1967) and compared with the observed efficacies.

Puccinia recondita = test: Curative activity against brown rust of wheat (potted wheat seedlings cv. Kanzler); assay type: in vivo; conditions: single active, 7 days
Method: as §1, §2, §3, §4
Leaves of potted wheat seedlings of the cultivar “Kanzler” were dusted with spores of brown rust (Puccinia recondita). The pots were then placed in a chamber with high atmospheric humidity (90 to 95%), at 20 to 22° C., for 24 hours. During this period of time, the spores germinated and the germinal tubes penetrated into the leaf tissue. The next day, the infected plants were sprayed to runoff point with an aqueous suspension having the concentration of active compound stated below. The suspension or emulsion had been prepared from a stock solution comprising 10% of active compound in a mixture consisting of 85% of cyclohexanone and 5% of emulsifier. After the spray coating had dried on, the test plants were cultivated in a greenhouse at temperatures between 20 and 22° C. and at 65 to 70% relative atmospheric humidity for 7 days. The extent of the rust fungus development on the leaves was then determined.
The visually determined percentages of infected leaf areas were converted into efficacies as % of the untreated control. An efficacy of 0 means that the infection level of the treated plants corresponds to that of the untreated control; an efficacy of 100 means 0% infection. The expected efficacies of the combinations of active compounds were determined using Colby's formula (Colby, S. R. “Calculating synergistic and antagonistic responses of herbicide Combinations”, Weeds, 15, pp. 20-22, 1967) and compared with the observed efficacies.

COc1cc(C)c(C(=O)c2c(OC)ccc(Br)c2C)c(OC)c1OC [Compound II = metrafenone, metrafenone]
Efficacy in % of the untreated control ([1]; 0.015 ppm in spray liquor): 33% | Efficacy in % of the untreated control ([1]; 0.06 ppm in spray liquor): 44% | Efficacy in % of the untreated control ([1]; 0.25 ppm in spray liquor): 56% | Efficacy in % of the untreated control ([1]; 1 ppm in spray liquor): 72% | Efficacy in % of the untreated control (Puccinia recondita; 0.015 ppm in spray liquor): 0% | Efficacy in % of the untreated control (Puccinia recondita; 0.06 ppm in spray liquor): 0% | Efficacy in % of the untreated control (Puccinia recondita; 0.25 ppm in spray liquor): 0% | Efficacy in % of the untreated control (Puccinia recondita; 1 ppm in spray liquor): 0%

Fc1ccc(C2(Cn3cncn3)OC2c2ccccc2Cl)cc1 (stereo not drawn) [Compound III = epoxiconazole, epoxiconazole]
Efficacy in % of the untreated control ([1]; 0.015 ppm in spray liquor): 0% | Efficacy in % of the untreated control ([1]; 0.06 ppm in spray liquor): 33% | Efficacy in % of the untreated control ([1]; 0.25 ppm in spray liquor): 44% | Efficacy in % of the untreated control ([1]; 1 ppm in spray liquor): 56% | Efficacy in % of the untreated control (Puccinia recondita; 0.015 ppm in spray liquor): 0% | Efficacy in % of the untreated control (Puccinia recondita; 0.06 ppm in spray liquor): 67% | Efficacy in % of the untreated control (Puccinia recondita; 0.25 ppm in spray liquor): 89% | Efficacy in % of the untreated control (Puccinia recondita; 1 ppm in spray liquor): 94%

COC(=O)N(OC)c1ccccc1COc1ccn(-c2ccc(Cl)cc2)n1 [Compound IV = pyraclostrobin, pyraclostrobin]
Efficacy in % of the untreated control ([1]; 0.015 ppm in spray liquor): 0% | Efficacy in % of the untreated control ([1]; 0.06 ppm in spray liquor): 0% | Efficacy in % of the untreated control ([1]; 0.25 ppm in spray liquor): 0% | Efficacy in % of the untreated control ([1]; 1 ppm in spray liquor): 33% | Efficacy in % of the untreated control (Puccinia recondita; 0.015 ppm in spray liquor): 22% | Efficacy in % of the untreated control (Puccinia recondita; 0.06 ppm in spray liquor): 33% | Efficacy in % of the untreated control (Puccinia recondita; 0.25 ppm in spray liquor): 33% | Efficacy in % of the untreated control (Puccinia recondita; 1 ppm in spray liquor): 78%
